Experimental data reported in US12715846B2, “Crystal form of quinolinone compound and use thereof” (SUNSHINE LAKE PHARMA CO., LTD., priority 2019, dated 2026).

Assays:
[1] = Stability: high-temperature experiment; assay type: physicochemical; details: for Purity: HPLC
Description: (1) High-temperature experiment: appropriate amount of the test sample was added into a flat weighing bottle, divided into ≤5 mm thick thin layer. The bottle was placed at 60° C.±2° C. for 30 days. Samples were taken on the 6th, 10th, and 30th day, and tested according to the key stability inspection items: the color of the samples were observed, the purities of the samples were determined by HPLC.

[2] = Stability: accelerated experiment; assay type: physicochemical; details: for Appearance / Purity / Moisture content: 40 ± 2° C./75% ± 5% RH; for Purity: HPLC; for Moisture content: by TGA
Description: (4) Accelerated experiment: appropriate amount of the test sample was packed with a single-layer PE and aluminum foil, the sample was placed at 40±2° C./75%±5% RH for 6 months. Samples were taken on the 1st, 2nd, 3rd and 6th month. The color of the samples were observed, the purities of the samples were determined by HPLC, and the moisture content was determined by TGA.

[3] = Stability: illumination experiment; assay type: physicochemical; details: for Appearance / Purity: Illumination; for Purity: HPLC
Description: (3) Illumination experiment: a batch of the test sample was added into a flat weighing bottle, divided into ≤5mm thick thin layer. The bottle was opened and placed in a light box (with UV lamp) under the condition of illuminance of 4500±500 lx and ultraviolet light ≥0.7w/m^2 for 30 days. Samples were taken on the 6th, 13th, and 30th day, the purities of the samples were determined by HPLC.

[4] = Hygroscopicity experiment (dynamic moisture adsorption, DVS); assay type: physicochemical
Description: The hygroscopicity of the present invention was measured by a DVS INT-Std dynamic moisture and gas adsorption analyzer from Surface Measurement Systems, UK. The humidity test range was 0%-95%, the airflow rate was 200 mL/min, and the temperature was 25° C. One test point was taken for every 5% increase in humidity.
An appropriate amount of the test sample was taken, the hygroscopicity was tested by dynamic moisture adsorption device.

Solubility experiment = assay type: physicochemical; details: comparison in words, values not given
Description: The solubility of the present invention was determined using an Agilent 1200 High Performance Liquid Chromatograph DAD/VWD detector with an Agilent XDB-C18 model (4.6×50 mm, 5 μm). The detection wavelength was 266 nm, the flow rate was 1.0 mL/min, and the column temperature was 35° C. The mobile phase A was acetonitrile−0.01 M ammonium acetate=10:90 (V:V), and the analysis method was acetonitrile−mobile phase A=70:30 (V:V). The running time was 10 minutes.

[5] = Pharmacokinetic experiment of the crystal form in Beagle dogs; assay type: in vivo
Description: The crystal form of the compound of formula (I) of the present invention is filled into capsules for oral administration.
8-12 kg male Beagle dogs were taken, and 3 as a group. Capsules containing the test sample were orally administered at a dose of 10 mg/kg and the bloods were collected at time points of 0.25, 0.5, 1.0, 2.0, 4.0, 6.0, 8.0 and 24 h. Standard curve was plotted based on concentrations of the samples in a suitable range, the concentration of the test sample in the plasma sample was measured and quantified by AB SCIEX API4000 LC-MS/MS at MRM mode. Pharmacokinetic parameters were calculated according to drug concentration-time curve using a noncompartmental method by WinNonLin 6.3 software.

[6] = Crystal form stability on standing under normal temperature and pressure; assay type: physicochemical; details: normal temperature and pressure conditions
[7] = Stability: high-humidity experiment; assay type: physicochemical; details: for Appearance / Purity: High humidity (RH92.5%); for Purity: HPLC
Description: (2) High-humidity experiment: a batch of the test sample was added into a flat weighing bottle, divided into ≤5 mm thick thin layer. The bottle was placed at 25° C. and RH for 90%±5% for 30 days. Samples were taken on the 6th, 10th, and 30th day, and tested according to the key stability inspection items: the color of the samples were observed, the purities of the samples were determined by HPLC.

[8] = 0 day (start, common to all conditions of Table 2)
[9] = High temperature (60° C.), 6th day
[10] = High temperature (60° C.), 10th day
[11] = High temperature (60° C.), 30th day
[12] = dog, plasma, po, male Beagle dogs, capsules orally, 10 mg/kg

Compound: Cn1c(=O)c(C(=O)NCC(=O)O)c(O)c2ccc(Oc3ccccc3)cc21 [Example 1, 2-(4-hydroxy-1-methyl-2-oxo-7-phenoxy-1,2-dihydroquinoline-3-carboxamido)acetic acid]
- Appearance [1, 8]: off-white
- Purity [1, 8]: 99.76%
- Appearance [1, 9]: off-white
- Purity [1, 9]: 99.77%
- Appearance [1, 10]: off-white
- Purity [1, 10]: 99.78%
- Appearance [1, 11]: off-white
- Purity [1, 11]: 99.77%
- change of appearance and purity ([1]; high temperature (60° C.), 30 days): no obvious changes
- Appearance ([2]; 0 month): off-white
- Purity ([2]; 0 month): 99.78%
- Moisture content ([2]; 0 month): 0.04%
- Appearance ([2]; 1st month): off-white
- Purity ([2]; 1st month): 99.77%
- Moisture content ([2]; 1st month): 0.06%
- Appearance ([2]; 2nd month): off-white
- Purity ([2]; 2nd month): 99.78%
- Moisture content ([2]; 2nd month): 0.07%
- Appearance ([2]; 3rd month): off-white
- Purity ([2]; 3rd month): 99.78%
- Moisture content ([2]; 3rd month): 0.08%
- Appearance ([2]; 6th month): off-white
- Purity ([2]; 6th month): 99.78%
- Moisture content ([2]; 6th month): 0.12%
- change of appearance, purity and moisture content ([2]; accelerated experimental conditions (40±2° C./75%±5% RH, 6 months)): no obvious changes
- Appearance ([3]; 6th day): off-white
- Purity ([3]; 6th day): 99.77%
- Appearance ([3]; 13th day): off-white
- Purity ([3]; 13th day): 99.77%
- Appearance ([3]; 30th day): off-white
- Purity ([3]; 30th day): 99.72%
- change of appearance and purity ([3]; lighting conditions, 30 days): no obvious changes
- hygroscopicity feature ([4]; Chinese Pharmacopoeia 2015 General Principle 9103 classes (Table 5)): lightly hygroscopic
- Weight gain at 60% relative humidity ([4]; DVS, 25° C., 60% relative humidity): 0.27%
- Weight gain at 80% relative humidity ([4]; DVS, 25° C., 80% relative humidity): 0.38%
- Weight gain at 95% relative humidity ([4]; DVS, 25° C., 95% relative humidity): 0.57%
- solubility compared with crystal form II (Solubility experiment): better solubility
- exposure in beagle dogs ([5]; beagle dogs, oral capsules 10 mg/kg, conclusion from Table 1): larger exposure
- AUC(0-t) [5, 12]: 9300 ng·h/mL
- Cmax [5, 12]: 2810 ng/mL
- Tmax [5, 12]: 1.17 h
- crystal transformation on standing ([6]; listed as crystal form I): does not undergo crystal transformation
- Appearance ([7]; 6th day): off-white
- Purity ([7]; 6th day): 99.78%
- Appearance ([7]; 10th day): off-white
- Purity ([7]; 10th day): 99.77%
- Appearance ([7]; 30th day): off-white
- Purity ([7]; 30th day): 99.76%
- change of appearance and purity ([7]; high humidity (25° C., RH 90%±5%), 30 days): no obvious changes

Compound: Cn1c(=O)c(C(=O)NCC(=O)O)c(O)c2ccc(Oc3ccccc3)cc21 [crystal form II, 2-(4-hydroxy-1-methyl-2-oxo-7-phenoxy-1,2-dihydroquinoline-3-carboxamido)acetic acid]
- crystal transformation on standing [6]: easy to undergo crystal transformation
